Usually IC50 stands for the concentration at which inhibition is half-maximal.

Where only a bound is given, the exact number is not on record here.

Assay [1] deals with T1, Kv1.3 potassium channel (Homo sapiens, UniProt P22001).
T1 construct: expressed in transfected cells
Description: Kv1.3 potassium channel blocker activity, automated whole-cell patch clamp (Patchliner). The assay is classed as cell-based. The following applies: CHO-K1 cells stably expressing Kv1.3; whole cell current inhibition; read-out: Kv1.3_IC50. The method in brief: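 CHO-K1 cells stably expressing Kv1.3, automated whole-cell patch clamp. Currents evoked by 100 ms steps from −90 mV holding to +40 mV at 0.1 Hz, sampled at 10 kHz unfiltered, P/4 leak subtraction; peak current inhibition measured, compound incubation ≤10 s between pulse trains.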

The target of assay [2] is hERG channel (Homo sapiens, UniProt Q12809). Description: hERG electrophysiology, automated whole-cell patch clamp (Patchliner). (In general: Block of hERG is tested as a sign of cardiac risk.)
hERG channel, sequence (Q12809 whole entry): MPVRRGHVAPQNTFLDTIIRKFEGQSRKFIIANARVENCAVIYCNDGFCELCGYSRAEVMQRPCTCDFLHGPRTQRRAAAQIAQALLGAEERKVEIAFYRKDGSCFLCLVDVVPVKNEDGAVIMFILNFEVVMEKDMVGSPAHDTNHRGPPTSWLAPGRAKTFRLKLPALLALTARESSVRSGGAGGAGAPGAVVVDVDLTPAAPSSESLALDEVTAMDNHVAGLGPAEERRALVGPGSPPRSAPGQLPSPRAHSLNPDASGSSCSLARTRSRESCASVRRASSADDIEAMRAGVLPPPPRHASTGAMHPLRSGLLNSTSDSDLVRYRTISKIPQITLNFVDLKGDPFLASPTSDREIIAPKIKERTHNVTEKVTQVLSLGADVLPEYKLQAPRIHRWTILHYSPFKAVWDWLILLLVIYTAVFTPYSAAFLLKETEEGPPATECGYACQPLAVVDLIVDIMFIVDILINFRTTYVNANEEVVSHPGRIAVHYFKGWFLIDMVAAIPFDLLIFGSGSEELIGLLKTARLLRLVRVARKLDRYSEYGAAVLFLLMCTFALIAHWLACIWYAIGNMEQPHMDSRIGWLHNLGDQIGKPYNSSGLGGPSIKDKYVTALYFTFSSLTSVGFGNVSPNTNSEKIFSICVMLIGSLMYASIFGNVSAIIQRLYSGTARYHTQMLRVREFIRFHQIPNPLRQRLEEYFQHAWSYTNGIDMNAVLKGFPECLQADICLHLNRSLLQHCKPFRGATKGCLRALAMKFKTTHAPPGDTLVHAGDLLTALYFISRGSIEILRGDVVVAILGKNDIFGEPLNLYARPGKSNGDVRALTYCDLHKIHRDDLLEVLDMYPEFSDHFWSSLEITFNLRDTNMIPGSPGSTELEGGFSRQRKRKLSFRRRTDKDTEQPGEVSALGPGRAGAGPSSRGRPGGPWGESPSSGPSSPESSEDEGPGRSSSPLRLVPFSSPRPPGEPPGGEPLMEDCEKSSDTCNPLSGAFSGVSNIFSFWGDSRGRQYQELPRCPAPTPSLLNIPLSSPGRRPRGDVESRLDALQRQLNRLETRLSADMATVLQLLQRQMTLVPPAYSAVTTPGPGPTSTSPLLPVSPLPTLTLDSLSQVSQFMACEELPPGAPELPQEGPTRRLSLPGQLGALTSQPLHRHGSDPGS

T1 sequence (P22001 whole entry): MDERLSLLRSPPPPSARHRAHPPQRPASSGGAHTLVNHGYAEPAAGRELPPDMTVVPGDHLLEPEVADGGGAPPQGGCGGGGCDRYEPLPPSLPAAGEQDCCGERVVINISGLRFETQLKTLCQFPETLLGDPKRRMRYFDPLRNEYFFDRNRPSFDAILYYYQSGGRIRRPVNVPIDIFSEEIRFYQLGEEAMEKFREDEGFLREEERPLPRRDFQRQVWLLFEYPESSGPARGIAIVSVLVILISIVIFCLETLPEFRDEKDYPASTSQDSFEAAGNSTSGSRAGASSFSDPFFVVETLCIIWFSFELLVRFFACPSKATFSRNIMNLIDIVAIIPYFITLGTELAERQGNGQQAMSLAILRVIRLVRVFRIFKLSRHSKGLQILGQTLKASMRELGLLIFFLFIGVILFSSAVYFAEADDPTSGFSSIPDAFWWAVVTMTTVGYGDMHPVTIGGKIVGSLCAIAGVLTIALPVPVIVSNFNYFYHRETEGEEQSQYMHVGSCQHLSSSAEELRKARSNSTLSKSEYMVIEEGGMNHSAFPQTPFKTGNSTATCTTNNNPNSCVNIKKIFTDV

Consider `N[C@@H](c1cc(Cl)c(Cl)cc1O)C1CCN(C(=O)C2CC(O)(CO)C2)CC1` (stereo partly drawn) [Compound 213, 2-[(R)-amino([1-[3-hydroxy-3-(hydroxymethyl)cyclobutane-carbonyl]piperidin-4-yl])methyl]-4,5-dichlorophenol trifluoroacetic acid], for which the concentration for half-maximal inhibition (IC50) was less than 0.5 µM in assay [1] and more than 30 µM in assay [2].
For the molecule `N[C@@H](c1cc(Cl)c(Cl)cc1O)C1CCN(c2cn[nH]c2)CC1` [Compound 149, 2-[(R)-amino[1-(1H-pyrazol-4-yl)piperidin-4-yl]methyl]-4,5-dichlorophenol Trifluoroacetic Acid], the IC50 is less than 10 µM in assay [1] and less than 30 µM in assay [2].
Consider `CC(=O)N1CCC(C(O)c2cc(Cl)c(Cl)cc2O)CC1` (centres unmarked) [Compound 4, 1-(4-((4,5-dichloro-2-hydroxyphenyl)(hydroxy)methyl)piperidin-1-yl)ethanone], for which the results for the IC50 in assay [1] and in assay [2] were less than 10 µM and more than 30 µM, respectively.
Regarding `O=S(=O)([C@H]1CCNC1)N1CCC([C@H](O)c2cc(Cl)c(Cl)cc2O)CC1` (single isomer, unassigned; isomer 3) [Compound 121, 4,5-dichloro-2-(hydroxy(1-(pyrrolidin-3-ylsulfonyl)piperidin-4-yl)methyl)phenol Isomer 3], the half-maximal inhibitory concentration (IC50) was less than 0.5 µM in assay [1] and more than 30 µM in assay [2].
For `N#CC1(C(=O)N2CCC(C(N)c3cc(Cl)c(Cl)cc3O)CC2)CC1` (centres unmarked) [Compound 48, 1-(4-(amino(4,5-dichloro-2-hydroxyphenyl)methyl)piperidine-1-carbonyl)cyclopropanecarbonitrile Trifluoroacetic Acid], in that order: less than 0.5 µM and less than 30 µM.
In the same order, the values of `Oc1cc(Cl)c(Cl)cc1[C@@H](O)C1CCNCC1` (single isomer, unassigned) [Compound 6] are less than 10 µM and more than 30 µM.
Take `N[C@H](c1c(O)cc(Cl)c(Cl)c1Cl)C1CCNCC1` (single isomer, unassigned) [Compound 60, Trifluoroacetic Acid]: the IC50 in assay [1] was less than 30 µM; in assay [2], more than 30 µM.
In the same order, the values of `N[C@@H](c1cc(Cl)c(Cl)cc1O)C1CCN(C(=O)c2c[nH]c3ccccc23)CC1` [Compound 204, (R)-(4-(amino(4,5-dichloro-2-hydroxyphenyl)methyl)piperidin-1-yl)(1H-indol-3-yl)methanone trifluoroacetic acid] are less than 10 µM and less than 30 µM.
For the molecule `NC(c1c(O)cc(Cl)c(Cl)c1F)C1CCN(C(=O)[C@H](O)CO)CC1` (stereo partly drawn) [Compound 328, (2R)-1-[4-[amino(3,4-dichloro-2-fluoro-6-hydroxyphenyl)methyl]piperidin-1-yl]-2,3-dihydroxypropan-1-one Trifluoroacetic Acid], the figures for the half-inhibitory concentration (IC50) in assay [1] and in assay [2] were less than 0.5 µM and more than 30 µM, respectively.
For `NCC(=O)N1CCC([C@@H](N)c2cc(Cl)c(Cl)cc2O)CC1` [Compound 92, 2-amino-1-[4-[(R)-amino(4,5-dichloro-2-hydroxyphenyl)methyl]piperidin-1-yl]ethan-1-one Trifluoroacetic Acid], in that order: less than 0.5 µM and more than 30 µM.
As for `N[C@@H](c1cc(Cl)c(Cl)cc1O)C1CCN(C(=O)C23CC(O)(C2)C3)CC1` [Compound 160, 3-[4-[(R)-amino(4,5-dichloro-2-hydroxyphenyl)methyl]piperidine-1-carbonyl]bicyclo [1.1.1]pentan-1-ol trifluoroacetic acid], the results for the IC50 in assay [1] and in assay [2] were less than 10 µM and less than 30 µM, respectively.
Take `Cc1cc(O)c([C@H](N)C2CCN(C(=O)c3c[nH]c(=O)c(C#N)c3)CC2)cc1Cl` [Compound 280, (R)-5-(4-(amino (5-chloro-2-hydroxy-4-methylphenyl)methyl)piperidine-1-carbonyl)-2-oxo-1,2-dihydro-pyridine-3-carbonitrile]: the results for the half-maximal inhibitory concentration (IC50) in assay [1] and in assay [2] were less than 0.5 µM and more than 30 µM, respectively.
For `N[C@@H](c1c(O)ccc2ccccc12)C1CCN(C(=O)[C@H](O)CO)CC1` [Compound 191, (2R)-1-[4-[(R)-amino(2-hydroxynaphthalen-1-yl)methyl]piperidin-1-yl]-2,3-dihydroxypropan-1-one Trifluoroacetic Acid], in that order: less than 10 µM and more than 30 µM.
For `N[C@@H](c1cc(Cl)c(Cl)cc1O)C1CCN(c2ccn[nH]2)CC1` [Compound 154, 2-[(R)-amino[1-(1H-pyrazol-3-yl)piperidin-4-yl]methyl]-4,5-dichlorophenol Trifluoroacetic Acid], in that order: less than 10 µM and more than 30 µM.
For `NC(=O)C(=O)N1CCC([C@@H](N)c2cc(Cl)c(Cl)cc2O)CC1` [Compound 206, 2-[4-[(R)-amino(4,5-dichloro-2-hydroxyphenyl)methyl]piperidin-1-yl]-2-oxoacetamide trifluoroacetic acid], in that order: less than 0.5 µM and more than 30 µM.
As for `N[C@@H](c1cc(Cl)c(Cl)cc1O)C1CCN(C(=O)[C@@H]2COCCN2)CC1` [Compound 195, (4-((R)-amino(4,5-dichloro-2-hydroxyphenyl)methyl)piperidin-1-yl)((S)-morpholin-3-yl)methanone], the IC50 in assay [1] was less than 0.5 µM; in assay [2] it was more than 30 µM.
`N[C@@H](c1cc(Cl)c(Cl)cc1O)C1CCN(c2ccc(O)nc2)CC1` [Compound 302, (R)-5-(4-(amino(4,5-dichloro-2-hydroxyphenyl)methyl)piperidin-1-yl)pyridin-2-ol]: the IC50 was less than 10 µM in assay [1] and more than 30 µM in assay [2].
In the same order, the values of `CN1CC[C@@H](C(=O)N2CCC([C@@H](N)c3cc(Cl)c(Cl)cc3O)CC2)C1` [Compound 104, 2-[(R)-amino([1-[(3R)-1-methylpyrrolidine-3-carbonyl]piperidin-4-yl])methyl]-4,5-dichlorophenol] are less than 0.5 µM and more than 30 µM.
Regarding `CC(=O)N1CCC(C(N)c2cc(Cl)c(Cl)cc2O)CC1` (centres unmarked) [Compound 9, 1-(4-(amino(4,5-dichloro-2-hydroxyphenyl)methyl)piperidin-1-yl)ethanone], the values for the half-inhibitory concentration (IC50) in assay [1] and in assay [2] were less than 10 µM and more than 30 µM, respectively.
Consider `NC(c1cc(Cl)c(Cl)cc1O)C1CCN(C2CCOCC2)CC1` (centres unmarked) [Compound 44, 2-(amino(1-(tetrahydro-2H-pyran-4-yl)piperidin-4-yl)methyl)-4,5-dichlorophenol], for which the IC50 in assay [1] is less than 10 µM; in assay [2] it was less than 30 µM.
For `N[C@@H](c1cc(Cl)c(Cl)cc1O)C1CCN(C(=O)[C@@H]2CCNC2)CC1` (single isomer, unassigned) [Compound 80], in that order: less than 0.5 µM and more than 30 µM.
In the same order, the values of `N[C@@H](c1cc(Cl)c(Cl)cc1O)C1CCN(C(=O)COC2COC2)CC1` [Compound 192, 1-[4-[(R)-amino(4,5-dichloro-2-hydroxyphenyl)methyl]piperidin-1-yl]-2-(oxetan-3-yloxy)ethan-1-one] are less than 0.5 µM and more than 30 µM.
For `C[C@H](O)[C@H](N)C(=O)N1CCC([C@@H](N)c2cc(Cl)c(Cl)cc2O)CC1` [Compound 175, (2S,3S)-2-amino-1-[4-[(R)-amino(4,5-dichloro-2-hydroxyphenyl)methyl]piperidin-1-yl]-3-hydroxybutan-1-one bis trifluoroacetic acid], in that order: less than 0.5 µM and more than 30 µM.
In the case of `CN1CC(C(=O)N2CCC([C@@H](N)c3cc(Cl)c(Cl)cc3O)CC2)NCC1=O` (stereo partly drawn) [Compound 300, 5-[4-[(R)-amino(4,5-dichloro-2-hydroxyphenyl)methyl]piperidine-1-carbonyl]-1-methylpiperazin-2-one Trifluoroacetic Acid], the IC50 was less than 0.5 µM in assay [1] and more than 30 µM in assay [2].
Consider `N[C@@H](c1cc(Cl)c(Cl)cc1O)C1CCN(C(=O)C2CC(F)(F)C2)CC1` [Compound 161, 2-[(R)-amino[1-(3,3-difluorocyclo-butanecarbonyl)piperidin-4-yl]methyl]-4,5-dichlorophenol], for which the half-maximal inhibitory concentration (IC50) is less than 10 µM in assay [1] and less than 30 µM in assay [2].
`NC(c1c(O)cc(Cl)c(Cl)c1Cl)C1CCNCC1` (centres unmarked) [Compound 37, 2-[amino(piperidin-4-yl)methyl]-3,4,5-trichlorophenol Trifluoroacetic Acid]: the IC50 in assay [1] is less than 10 µM; in assay [2], more than 30 µM.
For `CN1CC[C@H](C(=O)N2CCC([C@@H](N)c3cc(Cl)c(Cl)cc3O)CC2)C1` [Compound 106, (4-((R)-amino(4,5-dichloro-2-hydroxyphenyl)methyl)piperidin-1-yl)((S)-1-methylpyrrolidin-3-yl)methanone], in that order: less than 0.5 µM and more than 30 µM.
As to `N[C@@H](c1cc(Cl)c(Cl)cc1O)C1CCN(C(=O)[C@H]2CCC(=O)NC2)CC1` (single isomer, unassigned; isomer 1) [Compound 221], the IC50 in assay [1] is less than 0.5 µM; in assay [2], more than 30 µM.
`C[C@@H](O)C(=O)N1CCC([C@@H](N)c2cc(Cl)c(Cl)cc2O)CC1` [Compound 105, (R)-1-(4-((R)-amino(4,5-dichloro-2-hydroxyphenyl)methyl)piperidin-1-yl)-2-hydroxypropan-1-one]: the IC50 in assay [1] was less than 10 µM; in assay [2] it was more than 30 µM.
For `Nc1ccc(N2CCC([C@@H](N)c3cc(Cl)c(Cl)cc3O)CC2)nc1` [Compound 147, (R)-2-(amino(1-(5-aminopyridin-2-yl)piperidin-4-yl)methyl)-4,5-dichlorophenol Trifluoroacetic Acid], the results for the IC50 in assay [1] and in assay [2] were less than 0.5 µM and less than 30 µM, respectively.
`CN1C(=O)CC[C@H]1C(=O)N1CCC([C@@H](N)c2cc(Cl)c(Cl)cc2O)CC1` [Compound 306, (S)-5-(4-((R)-amino(4,5-dichloro-2-hydroxyphenyl)methyl)piperidine-1-carbonyl)-1-methylpyrrolidin-2-one trifluoroacetic acid]: the IC50 is less than 0.5 µM in assay [1] and more than 30 µM in assay [2].
